Measurements reported in publication PMC6070996 (Marine Drugs, 2018).
Read-outs that look alike come from different tables or passages of the source.

Columns and labels:
[1] = target: T1, protein phosphatase 1 (PP1) (Oryctolagus cuniculus, UniProt P62139); assay: protein phosphatase 1 inhibition assay; type: biochemical; set-up: key: - not active; */** small/medium activity; */** small/medium activity; conditions: highest concentration 45.4 μg/mL
T1 construct: purchased England Biolabs, Hitchin, UK (New England Biolabs) 754S
T1 sequence (P62139 whole entry): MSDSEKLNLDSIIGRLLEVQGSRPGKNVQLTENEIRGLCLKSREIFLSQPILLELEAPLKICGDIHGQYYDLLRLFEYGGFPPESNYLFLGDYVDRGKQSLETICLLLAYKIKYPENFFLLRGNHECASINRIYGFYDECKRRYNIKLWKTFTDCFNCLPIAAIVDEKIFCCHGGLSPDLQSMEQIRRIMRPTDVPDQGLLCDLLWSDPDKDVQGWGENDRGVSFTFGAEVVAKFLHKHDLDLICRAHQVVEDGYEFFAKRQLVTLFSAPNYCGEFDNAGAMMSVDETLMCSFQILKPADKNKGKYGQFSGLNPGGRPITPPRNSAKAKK

[2] = tested on: MCF-7 breast cancer cells; assay: MTT cytotoxicity assay; type: cell-based; conditions: 24-h exposure, 0 to 500 μg/mL
Description: For the test, two CPs were selected: Arg^2-containing CP962 and Tyr^2-containing CP985. MCF-7 breast cancer cells were seeded at 7.5 × 10^3 cells/100 μL in a 96-well plates and incubated at 37 °C, 5% CO2 for 24 h. The cells were then treated for a further 24 h with CP962 and CP985 (0 to 500 μg/mL). After 24 h, sterile-filtered 3-(4,5-dimethylthiazol-2-yl)-2,5-diphenyltetrazolium bromide solution (MTT; 1 mg/mL) was added to each well. After 4 h incubation at 37 °C in the dark, the MTT solution was removed and formazan crystals solubilized in DMSO. The plates were shaken for 20 min, in the dark, at room temperature and absorbance was measured at 560 nm (Synergy/HT, BIOTEK, Wnooski, VT, USA). For each CP, three independent experiments were carried out and each treatment consisted of six replicates per plate. Bar charts were used to represent the viability of MCF-7 cells treated with CP962 and CP985, compared to the control (i.e., untreated cells) that represented 100% cell viability.

[3] = target: T2, elastase from porcine pancreas (Sus scrofa, UniProt P00772); assay: elastase inhibition assay; type: biochemical; set-up: key: - not active; */** small/medium activity; */** small/medium activity; conditions: highest concentration 45.4 μg/mL
T2 construct: purchased Sigma-Aldrich E0258; host or cells: porcine pancreas
T2 sequence (P00772 27-266): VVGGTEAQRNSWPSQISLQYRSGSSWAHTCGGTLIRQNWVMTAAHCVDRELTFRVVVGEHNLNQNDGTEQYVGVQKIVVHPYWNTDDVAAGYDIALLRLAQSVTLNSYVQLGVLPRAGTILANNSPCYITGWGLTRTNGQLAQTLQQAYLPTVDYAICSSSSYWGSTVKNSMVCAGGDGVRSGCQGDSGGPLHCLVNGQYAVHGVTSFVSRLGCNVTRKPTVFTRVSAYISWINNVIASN

[4] = target: T3, trypsin from porcine pancreas (Sus scrofa, UniProt P00761); assay: trypsin inhibition assay; type: biochemical; set-up: key: - not active; */** small/medium activity; */** small/medium activity; conditions: class symbols
T3 construct: purchased Sigma-Aldrich T0303; host or cells: porcine pancreas
T3 sequence (P00761 9-231): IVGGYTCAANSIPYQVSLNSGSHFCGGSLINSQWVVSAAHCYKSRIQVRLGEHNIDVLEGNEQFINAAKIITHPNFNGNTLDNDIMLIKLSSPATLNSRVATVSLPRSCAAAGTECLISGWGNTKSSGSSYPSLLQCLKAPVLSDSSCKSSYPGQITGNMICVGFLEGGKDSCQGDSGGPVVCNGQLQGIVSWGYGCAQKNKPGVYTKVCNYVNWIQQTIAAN

[5] = target: α-chymotrypsin from bovine pancreas (Bos taurus, UniProt P00766); assay: chymotrypsin inhibition assay; type: biochemical; set-up: key to Enzyme Inhibition Chymotrypsin (activity class): - not active; */** small/medium activity; */** small/medium activity; conditions: for Enzyme Inhibition Chymotrypsin (activity class): class symbols
[6] = target: T4, Thrombin (Bos taurus, UniProt P00735); assay: thrombin inhibition assay; type: biochemical; set-up: key: - not active; */** small/medium activity; */** small/medium activity; conditions: highest concentration 45.4 μg/mL
T4 construct: purchased Sigma-Aldrich T4648

[7] = target: human leukocyte elastase (HLE); set-up: method as in PMID 18924217; conditions: activity of extracts; read-out: Enzyme Inhibition HLE IC50; cited from earlier work
[8] = tested on: Chymotrypsin; conditions: cited from earlier work
[9] = tested on: mice; conditions: administered intraperitoneally at concentrations up to 1000 µg/kg b.w.; cited from earlier work
[10] = tested on: small crustaceans; set-up: method as in doi:10.2216/i0031-8884-35-6S-111.1, PMID 20405925, PMID 12662108; conditions: cited from earlier work

CCCC(=O)NC(CC(=O)O)C(=O)NC1C(=O)NC(CCCNC(=N)N)C(=O)NC2CCC(O)N(C2=O)C(Cc2ccccc2)C(=O)N(C)C(Cc2ccccc2)C(=O)NC(C(C)C)C(=O)OC1C (stereo not shown) [CP 962, [Thr+Arg+Ahp+Phe+MePhe+Val]Asp+BA]
Enzyme Inhibition Protein Phosphatase 1 (activity class) [1]: -
cytotoxic effects on MCF-7 cells (MTT) [2]: no cytotoxic effects
Enzyme Inhibition Elastase (activity class) [3]: -
Enzyme Inhibition Trypsin (activity class) [4]: **
Enzyme Inhibition Chymotrypsin (activity class) [5]: -
Enzyme Inhibition Thrombin (activity class) [6]: -

CCCC(=O)N[C@@H](CC(=O)O)C(=O)N[C@@H]1C(=O)N[C@@H](Cc2ccc(O)cc2)C(=O)N[C@H]2CC[C@@H](O)N(C2=O)[C@@H](Cc2ccccc2)C(=O)N(C)[C@@H](Cc2ccccc2)C(=O)N[C@@H](C(C)C)C(=O)O[C@@H]1C [CP 969, [Thr+Tyr+Ahp+Phe+MePhe+Val]Asp+BA]
Enzyme Inhibition Protein Phosphatase 1 (activity class) [1]: -
Enzyme Inhibition Elastase (activity class) [3]: -
Enzyme Inhibition Trypsin (activity class) [4]: -
Enzyme Inhibition Chymotrypsin (activity class) [5]: **
Enzyme Inhibition Thrombin (activity class) [6]: -

CCCC(=O)N[C@@H](CC(=O)O)C(=O)N[C@@H]1C(=O)N[C@@H](CCCNC(=N)N)C(=O)N[C@H]2CC[C@@H](O)N(C2=O)[C@@H](Cc2ccccc2)C(=O)N(C)[C@@H](Cc2ccc(O)cc2)C(=O)N[C@@H](C(C)C)C(=O)O[C@@H]1C [CP 978, [Thr+Arg+Ahp+Phe+MeTyr+Val]Asp+BA]
Enzyme Inhibition Protein Phosphatase 1 (activity class) [1]: -
Enzyme Inhibition Elastase (activity class) [3]: -
Enzyme Inhibition Thrombin (activity class) [6]: -

CCCC(=O)NC(CC(=O)O)C(=O)NC1C(=O)NC(Cc2ccc(O)cc2)C(=O)NC2CCC(O)N(C2=O)C(Cc2ccccc2)C(=O)N(C)C(Cc2ccc(O)cc2)C(=O)NC(C(C)C)C(=O)OC1C (stereo not shown) [CP 985, [Thr+Tyr+Ahp+Phe+MeTyr+Val]Asp+BA]
Enzyme Inhibition Protein Phosphatase 1 (activity class) [1]: -
cytotoxic effects on MCF-7 cells (MTT) [2]: no cytotoxic effects
Enzyme Inhibition Elastase (activity class) [3]: -
Enzyme Inhibition Trypsin (activity class) [4]: -
IC50 ([5]; read-out: Enzyme Inhibition (IC50 [µM]) Chymotrypsin): 0.26 µM
Enzyme Inhibition Thrombin (activity class) [6]: -

CCCCCC(=O)N[C@@H](CC(=O)O)C(=O)N[C@@H]1C(=O)N[C@@H](CCCNC(=N)N)C(=O)N[C@H]2CC[C@@H](O)N(C2=O)[C@@H](Cc2ccccc2)C(=O)N(C)[C@@H](Cc2ccccc2)C(=O)N[C@@H](C(C)C)C(=O)O[C@@H]1C [CP 990, [Thr+Arg+Ahp+Phe+MePhe+Val]Asp+HA]
Enzyme Inhibition Protein Phosphatase 1 (activity class) [1]: -
Enzyme Inhibition Elastase (activity class) [3]: -
Enzyme Inhibition Trypsin (activity class) [4]: **
Enzyme Inhibition Chymotrypsin (activity class) [5]: -
Enzyme Inhibition Thrombin (activity class) [6]: -

CCCC(=O)N[C@@H](CC(=O)O)C(=O)N[C@@H]1C(=O)N[C@@H](CCCNC(=N)N)C(=O)N[C@H]2CC[C@@H](O)N(C2=O)[C@@H](Cc2ccccc2)C(=O)N(C)[C@@H](CCc2ccc(O)cc2)C(=O)N[C@@H](C(C)C)C(=O)O[C@@H]1C [CP 992, [Thr+Arg+Ahp+Phe+MeHty+Val]Asp+BA]
Enzyme Inhibition Protein Phosphatase 1 (activity class) [1]: -
Enzyme Inhibition Elastase (activity class) [3]: -
Enzyme Inhibition Thrombin (activity class) [6]: -

CCCC(=O)N[C@@H](CC(=O)O)C(=O)N[C@@H]1C(=O)N[C@@H](Cc2ccc(O)cc2)C(=O)N[C@H]2CC[C@@H](O)N(C2=O)[C@@H](Cc2ccccc2)C(=O)N(C)[C@@H](CCc2ccc(O)cc2)C(=O)N[C@@H](C(C)C)C(=O)O[C@@H]1C [CP 999, [Thr+Tyr+Ahp+Phe+MeHty+Val]Asp+BA]
Enzyme Inhibition Protein Phosphatase 1 (activity class) [1]: -
Enzyme Inhibition Trypsin (activity class) [4]: -
Enzyme Inhibition Chymotrypsin (activity class) [5]: **
Enzyme Inhibition Thrombin (activity class) [6]: -

CCCCCC(=O)N[C@@H](CC(=O)O)C(=O)N[C@@H]1C(=O)N[C@@H](CCCNC(=N)N)C(=O)N[C@H]2CC[C@@H](O)N(C2=O)[C@@H](Cc2ccccc2)C(=O)N(C)[C@@H](Cc2ccc(O)cc2)C(=O)N[C@@H](C(C)C)C(=O)O[C@@H]1C [CP 1006, [Thr+Arg+Ahp+Phe+MeTyr+Val]Asp+HA]
Enzyme Inhibition Protein Phosphatase 1 (activity class) [1]: -
Enzyme Inhibition Elastase (activity class) [3]: -
Enzyme Inhibition Trypsin (activity class) [4]: **
Enzyme Inhibition Chymotrypsin (activity class) [5]: *
Enzyme Inhibition Thrombin (activity class) [6]: -

CCCCCC(=O)N[C@@H](CC(=O)O)C(=O)N[C@@H]1C(=O)N[C@@H](Cc2ccc(O)cc2)C(=O)N[C@H]2CC[C@@H](O)N(C2=O)[C@@H](Cc2ccccc2)C(=O)N(C)[C@@H](Cc2ccc(O)cc2)C(=O)N[C@@H](C(C)C)C(=O)O[C@@H]1C [CP 1013, [Thr+Tyr+Ahp+Phe+MeTyr+Val]Asp+HA]
Enzyme Inhibition Protein Phosphatase 1 (activity class) [1]: -
Enzyme Inhibition Elastase (activity class) [3]: -
Enzyme Inhibition Trypsin (activity class) [4]: -
Enzyme Inhibition Chymotrypsin (activity class) [5]: **
Enzyme Inhibition Thrombin (activity class) [6]: -

CCCCCCCC(=O)N[C@@H](CC(=O)O)C(=O)N[C@@H]1C(=O)N[C@@H](CCCNC(=N)N)C(=O)N[C@H]2CC[C@@H](O)N(C2=O)[C@@H](Cc2ccccc2)C(=O)N(C)[C@@H](Cc2ccccc2)C(=O)N[C@@H](C(C)C)C(=O)O[C@@H]1C [CP 1018, [Thr+Arg+Ahp+Phe+MePhe+Val]Asp+OA]
Enzyme Inhibition Protein Phosphatase 1 (activity class) [1]: -
Enzyme Inhibition Elastase (activity class) [3]: -
Enzyme Inhibition Chymotrypsin (activity class) [5]: -
Enzyme Inhibition Thrombin (activity class) [6]: -

CCCCCC(=O)N[C@@H](CC(=O)O)C(=O)N[C@@H]1C(=O)N[C@@H](Cc2ccc(O)cc2)C(=O)N[C@H]2CC[C@@H](O)N(C2=O)[C@@H](Cc2ccccc2)C(=O)N(C)[C@@H](CCc2ccc(O)cc2)C(=O)N[C@@H](C(C)C)C(=O)O[C@@H]1C [CP 1027, [Thr+Tyr+Ahp+Phe+MeHty+Val]Asp+HA]
Enzyme Inhibition Protein Phosphatase 1 (activity class) [1]: -
Enzyme Inhibition Elastase (activity class) [3]: -
Enzyme Inhibition Trypsin (activity class) [4]: -
Enzyme Inhibition Thrombin (activity class) [6]: -

CCCCCCCC(=O)N[C@@H](CC(=O)O)C(=O)N[C@@H]1C(=O)N[C@@H](CCCNC(=N)N)C(=O)N[C@H]2CC[C@@H](O)N(C2=O)[C@@H](Cc2ccccc2)C(=O)N(C)[C@@H](CCc2ccc(O)cc2)C(=O)N[C@@H](C(C)C)C(=O)O[C@@H]1C [CP 1048, [Thr+Arg+Ahp+Phe+MeHty+Val]Asp+OA]
Enzyme Inhibition Protein Phosphatase 1 (activity class) [1]: -
Enzyme Inhibition Elastase (activity class) [3]: -
Enzyme Inhibition Trypsin (activity class) [4]: **
Enzyme Inhibition Chymotrypsin (activity class) [5]: *
Enzyme Inhibition Thrombin (activity class) [6]: -

CC[C@H](C)[C@H]1C(=O)N(C)[C@@H](Cc2ccc(OC)cc2)C(=O)N[C@@H](C(C)C)C(=O)O[C@@H]2[C@H](C)CN(C(=O)[C@H](CCCNC(N)=O)NC(C)=O)[C@@H]2C(=O)N[C@@H](CC(C)C)C(=O)N[C@H]2CC[C@@H](O)N1C2=O [Insulapeptolide C, [Hmp+Leu+Ahp+Ile+diMeTyr+Val]Cit+Ac]
IC50 [7]: 90 nM

CC(=O)N[C@@H](CCC(N)=O)C(=O)N[C@@H]1C(=O)N[C@@H](CC(C)C)C(=O)N[C@H]2CC[C@@H](O)N(C2=O)[C@@H](Cc2ccccc2)C(=O)N(C)[C@@H](Cc2ccc(O)cc2)C(=O)N[C@@H](C(C)C)C(=O)O[C@@H]1C [Nostopeptin BN920, [Thr+Leu+Ahp+Phe+MeTyr+Val]Gln+Ac]
IC50 ([8]; read-out: Enzyme Inhibition Chymotrypsin IC50): 110 nM

CC[C@H](C)[C@@H]1NC(=O)[C@H](Cc2ccc(O)cc2)N(C)C(=O)[C@H](Cc2ccccc2)N2C(=O)[C@H](CC[C@H]2O)NC(=O)[C@H](Cc2ccccc2)NC(=O)[C@@H](NC(=O)[C@@H](O)COP(=O)(O)O)[C@@H](C)OC1=O [micropeptin T20]
IC50 ([8]; read-out: chymotrypsin IC50): 2.5 nM

Oscillapeptin J
harmful effects in mice [9]: did not induce any harmful effects
acute effects in small crustaceans [10]: induced acute effects

[Hmp+Leu+Ahp+Ile+MeTyr+Val]Cit+Ac [Insulapeptolide A]
IC50 [7]: 140 nM

[Hmp+Leu+Ahp+Ile+diMeTyr+Ile]Cit+Ac [Insulapeptolide D]
IC50 [7]: 85 nM

[Hmp+Leu+Ahp+Leu+MeTyr+Ile]Cit+Ac [Insulapeptolide B]
IC50 [7]: 100 nM

[Thr+Hph+Ahp+Thr+MePhe+Val]Ser+Pro+BA [Insulapeptolide G]
IC50 [7]: 3500 nM

[Thr+Hph+Ahp+Thr+MeTyr+Ile]Ser+Pro+BA [Insulapeptolide E]
IC50 [7]: 3200 nM

[Thr+Hph+Ahp+Thr+MeTyr+Ile]Ser+Pro+BA [Insulapeptolide H]
IC50 [7]: 2700 nM

[Thr+Hph+Ahp+Thr+MeTyr+Val]Ser+Pro+BA [Insulapeptolide F]
IC50 [7]: 1600 nM
